Measurements from the NIST ThermoML archive (doi:10.1016/j.jct.2017.03.032).

Assay: wn = mass fraction of the nth substance listed
Conditions: Gas, Burnett expansion method

F/C=C/C(F)(F)F [trans-1,3,3,3-tetrafluoropropene] + CC(C)C
Conditions | mass density [kg/m3]
280.17 K, 167.4 kPa, w1 = 0.7 | 6.7132
280.17 K, 218.3 kPa, w1 = 0.7 | 8.9087
280.18 K, 165.3 kPa, w1 = 0.65 | 6.4038
280.18 K, 215.5 kPa, w1 = 0.65 | 8.4982
280.18 K, 229.9 kPa, w1 = 0.8 | 10.1496
285.05 K, 159.8 kPa, w1 = 0.8 | 6.7596
285.06 K, 208.9 kPa, w1 = 0.8 | 8.9702
285.06 K, 266.4 kPa, w1 = 0.75 | 11.209
285.06 K, 272 kPa, w1 = 0.8 | 11.904
285.06 K, 290 kPa, w1 = 0.9 | 13.8805
285.08 K, 149.5 kPa, w1 = 0.65 | 5.6292
285.08 K, 195.5 kPa, w1 = 0.65 | 7.4702
285.08 K, 254.6 kPa, w1 = 0.65 | 9.9134
285.09 K, 151.9 kPa, w1 = 0.7 | 5.9363
285.09 K, 198.7 kPa, w1 = 0.7 | 7.8779
285.09 K, 258.7 kPa, w1 = 0.7 | 10.4543
290.16 K, 140.3 kPa, w1 = 0.75 | 5.5569
290.16 K, 183.7 kPa, w1 = 0.75 | 7.3743
290.16 K, 234.4 kPa, w1 = 0.7 | 9.1876
290.16 K, 239.9 kPa, w1 = 0.75 | 9.7861
290.17 K, 153.8 kPa, w1 = 0.9 | 6.9178
290.17 K, 201.4 kPa, w1 = 0.9 | 9.1804
290.17 K, 262.6 kPa, w1 = 0.9 | 12.1828
290.17 K, 304.8 kPa, w1 = 0.7 | 12.1924
290.17 K, 311.8 kPa, w1 = 0.75 | 12.9866
290.17 K, 340.7 kPa, w1 = 0.9 | 16.1673
290.18 K, 176 kPa, w1 = 0.65 | 6.5292
290.18 K, 179.5 kPa, w1 = 0.7 | 6.9229
290.18 K, 229.9 kPa, w1 = 0.65 | 8.6646
290.18 K, 299.2 kPa, w1 = 0.65 | 11.4985
290.19 K, 148.1 kPa, w1 = 0.85 | 6.3743
290.19 K, 193.9 kPa, w1 = 0.85 | 8.459
290.19 K, 252.9 kPa, w1 = 0.85 | 11.2256
290.19 K, 328.4 kPa, w1 = 0.85 | 14.8972
290.2 K, 188.8 kPa, w1 = 0.8 | 7.8842
290.2 K, 246.5 kPa, w1 = 0.8 | 10.4628
290.2 K, 320.1 kPa, w1 = 0.8 | 13.8847
295.18 K, 138.3 kPa, w1 = 0.9 | 6.0742
295.18 K, 181.5 kPa, w1 = 0.9 | 8.0608
295.18 K, 198.3 kPa, w1 = 0.65 | 7.2638
295.18 K, 258.7 kPa, w1 = 0.65 | 9.6394
295.18 K, 308.8 kPa, w1 = 0.9 | 14.1958
295.18 K, 336.3 kPa, w1 = 0.65 | 12.7921
295.18 K, 399.6 kPa, w1 = 0.9 | 18.8389
295.19 K, 151.4 kPa, w1 = 0.65 | 5.4735
295.19 K, 237.2 kPa, w1 = 0.9 | 10.6968
295.2 K, 160.8 kPa, w1 = 0.7 | 6.0421
295.2 K, 173.7 kPa, w1 = 0.85 | 7.366
295.2 K, 210.4 kPa, w1 = 0.7 | 8.0182
295.2 K, 227.4 kPa, w1 = 0.85 | 9.7751
295.2 K, 274.6 kPa, w1 = 0.7 | 10.6407
295.2 K, 296.4 kPa, w1 = 0.85 | 12.9722
295.2 K, 356.2 kPa, w1 = 0.7 | 14.1209
295.2 K, 384.1 kPa, w1 = 0.85 | 17.2147
295.21 K, 165.5 kPa, w1 = 0.75 | 6.4713
295.21 K, 216.7 kPa, w1 = 0.75 | 8.5879
295.21 K, 282.6 kPa, w1 = 0.75 | 11.3966
295.21 K, 366.4 kPa, w1 = 0.75 | 15.1241
295.22 K, 169.2 kPa, w1 = 0.8 | 6.8878
295.22 K, 221.5 kPa, w1 = 0.8 | 9.1405
295.22 K, 288.6 kPa, w1 = 0.8 | 12.13
295.22 K, 374 kPa, w1 = 0.8 | 16.0973
300.14 K, 198.5 kPa, w1 = 0.8 | 7.9893
300.14 K, 259.5 kPa, w1 = 0.8 | 10.6023
300.14 K, 337.5 kPa, w1 = 0.8 | 14.0697
300.16 K, 151.4 kPa, w1 = 0.8 | 6.02
300.16 K, 156.6 kPa, w1 = 0.85 | 6.5188
300.16 K, 205.4 kPa, w1 = 0.85 | 8.6508
300.16 K, 268.4 kPa, w1 = 0.85 | 11.4801
300.16 K, 348.9 kPa, w1 = 0.85 | 15.2347
300.16 K, 448.5 kPa, w1 = 0.85 | 20.2174
300.17 K, 466.4 kPa, w1 = 0.9 | 21.9125
300.18 K, 162.8 kPa, w1 = 0.9 | 7.0652
300.18 K, 213.3 kPa, w1 = 0.9 | 9.3759
300.18 K, 278.5 kPa, w1 = 0.9 | 12.4424
300.18 K, 361.8 kPa, w1 = 0.9 | 16.5116
300.19 K, 141.1 kPa, w1 = 0.65 | 4.9939
300.19 K, 147.4 kPa, w1 = 0.75 | 5.6247
300.19 K, 185.2 kPa, w1 = 0.65 | 6.6273
300.19 K, 193.2 kPa, w1 = 0.75 | 7.4643
300.19 K, 242.2 kPa, w1 = 0.65 | 8.7948
300.19 K, 252.7 kPa, w1 = 0.75 | 9.9055
300.19 K, 315.5 kPa, w1 = 0.65 | 11.6712
300.19 K, 328.9 kPa, w1 = 0.75 | 13.1452
300.19 K, 408.2 kPa, w1 = 0.65 | 15.4884
300.19 K, 425.4 kPa, w1 = 0.75 | 17.4445
300.21 K, 143.9 kPa, w1 = 0.7 | 5.2837
300.21 K, 188.7 kPa, w1 = 0.7 | 7.0118
300.21 K, 246.8 kPa, w1 = 0.7 | 9.3051
300.21 K, 321.3 kPa, w1 = 0.7 | 12.3484
300.21 K, 415.8 kPa, w1 = 0.7 | 16.3872
305.17 K, 185.5 kPa, w1 = 0.8 | 7.2959
305.17 K, 243 kPa, w1 = 0.8 | 9.6822
305.17 K, 316.9 kPa, w1 = 0.8 | 12.8488
305.17 K, 410.9 kPa, w1 = 0.8 | 17.0511
305.18 K, 145.2 kPa, w1 = 0.85 | 5.912
305.18 K, 169.9 kPa, w1 = 0.7 | 6.1677
305.18 K, 189.6 kPa, w1 = 0.85 | 7.8456
305.18 K, 249.6 kPa, w1 = 0.85 | 10.4115
305.18 K, 290.8 kPa, w1 = 0.7 | 10.8618
305.18 K, 325.5 kPa, w1 = 0.85 | 13.8167
305.18 K, 377.9 kPa, w1 = 0.7 | 14.4143
305.18 K, 420.8 kPa, w1 = 0.85 | 18.3356
305.18 K, 536.7 kPa, w1 = 0.85 | 24.3325
305.19 K, 181.1 kPa, w1 = 0.75 | 6.8373
305.19 K, 222.7 kPa, w1 = 0.7 | 8.1848
305.19 K, 237.2 kPa, w1 = 0.75 | 9.0735
305.19 K, 401.5 kPa, w1 = 0.75 | 15.9791
305.19 K, 487 kPa, w1 = 0.7 | 19.1285
305.2 K, 162.4 kPa, w1 = 0.65 | 5.6789
305.2 K, 212.9 kPa, w1 = 0.65 | 7.5363
305.2 K, 278.3 kPa, w1 = 0.65 | 10.001
305.2 K, 309.5 kPa, w1 = 0.75 | 12.0406
305.2 K, 361.8 kPa, w1 = 0.65 | 13.2721
305.2 K, 465.9 kPa, w1 = 0.65 | 17.6129
305.21 K, 150 kPa, w1 = 0.9 | 6.375
305.21 K, 196.9 kPa, w1 = 0.9 | 8.4599
305.21 K, 257.6 kPa, w1 = 0.9 | 11.2269
305.21 K, 335.6 kPa, w1 = 0.9 | 14.8987
305.21 K, 434.3 kPa, w1 = 0.9 | 19.7715
305.21 K, 557 kPa, w1 = 0.9 | 26.2379
310.09 K, 153.4 kPa, w1 = 0.7 | 5.4721
310.09 K, 569.4 kPa, w1 = 0.7 | 22.5217
310.1 K, 157.4 kPa, w1 = 0.8 | 6.0902
310.1 K, 201.9 kPa, w1 = 0.7 | 7.2614
310.1 K, 207.9 kPa, w1 = 0.8 | 8.082
310.1 K, 271.8 kPa, w1 = 0.75 | 10.3201
310.1 K, 272 kPa, w1 = 0.8 | 10.7254
310.1 K, 344.7 kPa, w1 = 0.7 | 12.7882
310.1 K, 354.2 kPa, w1 = 0.75 | 13.6955
310.1 K, 354.6 kPa, w1 = 0.8 | 14.233
310.1 K, 458.2 kPa, w1 = 0.8 | 18.8881
310.1 K, 459.6 kPa, w1 = 0.75 | 18.1746
310.1 K, 583 kPa, w1 = 0.75 | 24.1187
310.1 K, 583.3 kPa, w1 = 0.8 | 25.0653
310.11 K, 158.1 kPa, w1 = 0.75 | 5.86
310.11 K, 207.6 kPa, w1 = 0.75 | 7.7765
310.11 K, 446.6 kPa, w1 = 0.7 | 16.9702
310.12 K, 264.5 kPa, w1 = 0.7 | 9.6359
310.12 K, 493.5 kPa, w1 = 0.9 | 22.3926
310.13 K, 166 kPa, w1 = 0.85 | 6.6824
310.13 K, 172 kPa, w1 = 0.9 | 7.22
310.13 K, 225.6 kPa, w1 = 0.9 | 9.5815
310.13 K, 294.9 kPa, w1 = 0.9 | 12.7151
310.13 K, 337.1 kPa, w1 = 0.65 | 12.0235
310.13 K, 372.9 kPa, w1 = 0.85 | 15.6171
310.13 K, 383.7 kPa, w1 = 0.9 | 16.8736
310.13 K, 436.3 kPa, w1 = 0.65 | 15.9559
310.13 K, 556 kPa, w1 = 0.65 | 21.1744
310.13 K, 607.5 kPa, w1 = 0.85 | 27.5031
310.14 K, 196.8 kPa, w1 = 0.65 | 6.8271
310.14 K, 216.8 kPa, w1 = 0.85 | 8.8678
310.14 K, 258.2 kPa, w1 = 0.65 | 9.0598
310.14 K, 285 kPa, w1 = 0.85 | 11.7678
310.14 K, 479.8 kPa, w1 = 0.85 | 20.7246
310.15 K, 149.8 kPa, w1 = 0.65 | 5.1443
